Experimental data as given in ChEMBL document CHEMBL3046927, “Synthesis and herbicidal activity of novel 5-chloro-3-fluoro-2-phenoxypyridines with a 1,3,4-oxadiazole ring” (J Pestic Sci, 2011).

Columns and labels:
Hordeum vulgare = experiment: Phytotoxicity against Hordeum vulgare (barley) plants assessed as crop damage at 125 g ai/ha measured after 3 weeks post compound treatment; format: organism-based; conditions: in vivo, 504 h
Echinochloa crus-galli = experiment: Post-emergence herbicidal activity against Echinochloa crus-galli (barnyard grass) at 125 g ai/ha measured after 3 weeks post compound treatment; format: functional
Avena fatua = experiment: Post-emergence herbicidal activity against Avena fatua at 125 g ai/ha measured after 3 weeks post compound treatment; format: functional
Triticum aestivum = experiment: Phytotoxicity against Triticum aestivum (wheat) plants assessed as crop damage at 125 g ai/ha measured after 3 weeks post compound treatment; format: organism-based; conditions: in vivo, 504 h
Sorghum halepense = experiment: Post-emergence herbicidal activity against Sorghum halepense (Johnson grass) at 125 g ai/ha measured after 3 weeks post compound treatment; format: functional

| Structure (SMILES) | Activity (Hordeum vulgare) | Activity (Echinochloa crus-galli) | Activity (Avena fatua) | Activity (Triticum aestivum) | Activity (Sorghum halepense) |
| --- | --- | --- | --- | --- | --- |
| CSc1nnc([C@@H](C)Oc2ccc(Oc3ncc(Cl)cc3F)cc2)o1 | 15% | 80% | 70% | 5% | 60% |
| C[C@@H](Oc1ccc(Oc2ncc(Cl)cc2F)cc1)c1nnc(SCc2ccccc2)o1 | 0% | 35% | 25% | 0% | 20% |
| CCCCSc1nnc([C@@H](C)Oc2ccc(Oc3ncc(Cl)cc3F)cc2)o1 | 10% | 80% | 65% | 5% | 55% |
| C[C@@H](Oc1ccc(Oc2ncc(Cl)cc2F)cc1)c1nnc(SC(=O)c2ccccc2)o1 | 0% | 55% | 35% | 0% | 40% |
| CCSc1nnc([C@@H](C)Oc2ccc(Oc3ncc(Cl)cc3F)cc2)o1 | 15% | 85% | 75% | 5% | 60% |
| CCOC(=O)Sc1nnc([C@@H](C)Oc2ccc(Oc3ncc(Cl)cc3F)cc2)o1 | 0% | 60% | 45% | 0% | 40% |
| CC(Sc1nnc([C@@H](C)Oc2ccc(Oc3ncc(Cl)cc3F)cc2)o1)C(=O)O (stereo not given in full) | 15% | 70% | 70% | 0% | 60% |
| C[C@@H](Oc1ccc(Oc2ncc(Cl)cc2F)cc1)c1nnc(SCc2ccc(Cl)nc2)o1 | 0% | 40% | 30% | 0% | 30% |
| C[C@@H](Oc1ccc(Oc2ncc(Cl)cc2F)cc1)c1nnc(SCC(N)=O)o1 | 0% | 45% | 40% | 0% | 40% |
| C#CCSc1nnc([C@@H](C)Oc2ccc(Oc3ncc(Cl)cc3F)cc2)o1 | 0% | 100% | 95% | 0% | 80% |
| CC(O)CSc1nnc([C@@H](C)Oc2ccc(Oc3ncc(Cl)cc3F)cc2)o1 (stereo not given in full) | 0% | 40% | 35% | 0% | 30% |
| C[C@@H](Oc1ccc(Oc2ncc(Cl)cc2F)cc1)c1nnc(SCC(=O)O)o1 | 15% | 60% | 50% | 0% | 45% |
| C#CCOC(=O)[C@@H](C)Oc1ccc(Oc2ncc(Cl)cc2F)cc1 [CLODINAFOP PROPARGYL] | 35% | 100% | 85% | 0% | 80% |
| CCCCCSc1nnc([C@@H](C)Oc2ccc(Oc3ncc(Cl)cc3F)cc2)o1 | 5% | 70% | 55% | 0% | 50% |
